Test system: HIV (HTLV-III B strain)
Experiment: HIV replication inhibition assay (MTT, MT-4 cells)
Format: cell-based
Details: 4 days culture, concentration at which cell cytotoxicity by virus is inhibited 50%
How it was run: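 MT-4 cells (2.5×10^4/well) infected with HTLV-III B stock (60 pfu) in presence of compound, cultured four days at 37 °C. Viability by MTT reduction, formazan read at 560 and 690 nm. EC50 is concentration inhibiting virus-induced cytotoxicity by 50%.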

SMILES	EC50 [nM]
Cc1c(C(OC(C)(C)C)C(=O)O)c(-c2ccc3c(c2)CCCO3)c(C)c2c1[nH]c(=O)n2Cc1ccccc1 (stereo not drawn) [Compound 3]	64

Same assay, conditions: Human immunodeficiency virus 1, MT4, 96 h, 4 days culture, concentration at which cell cytotoxicity by virus is inhibited 50%

SMILES	EC50 [nM]
Cc1ccc(-c2c(C)c3c(c(C)c2[C@H](OC(C)(C)C)C(=O)O)S(=O)(=O)Cc2cc(F)cc(F)c2-3)cc1 [Compound 298]	30
Cc1ccc(-c2c(C)c3c(c(C)c2[C@H](OC(C)(C)C)C(=O)O)NC(=O)c2ccc(C)nc2O3)cc1 [Compound 48]	29
Cc1c(-c2ccc3c(c2C)N(C)CCO3)c([C@H](OC(C)(C)C)C(=O)O)c(C)c2c1-c1c(F)ccc(F)c1CN2S(C)(=O)=O [Compound 321]	15

Same assay, conditions: Human immunodeficiency virus 1, MT4, 96 h, Table A-2, four days

SMILES	EC50 [nM]
Cc1ccc(-c2c([C@H](OC(C)(C)C)C(=O)O)c(C)c3nc(O)c4cc(F)cnc4c3c2C)cc1 [Compound 100]	10
Cc1ccc(-c2c(C)c3c(c(C)c2[C@H](OC(C)(C)C)C(=O)O)NC(=O)C2(CCC(C)(C)CC2)N3)cc1 [Compound 112]	8.5
Cc1ccc(-c2c(C)c3c(c(C)c2[C@H](OC(C)(C)C)C(=O)O)NS(=O)(=O)N(C2CCCC2)CC3)cc1 [Compound 129]	7.7
Cc1ccc(-c2c(C)c3c(c(C)c2[C@H](OC(C)(C)C)C(=O)O)N(S(C)(=O)=O)Cc2cccc(F)c2-3)cc1 [Compound 109]	9.1

Same assay, conditions: Human immunodeficiency virus 1, MT4, 96 h, Table A-3, four days

SMILES	EC50 [nM]
Cc1ccc(-c2c(C)c3c(c(C)c2[C@H](OC(C)(C)C)C(=O)O)N(S(C)(=O)=O)Cc2cccc(C(F)(F)F)c2-3)cc1 [Compound 169]	9.6
Cc1ccc(-c2c(C)c3c(c(C)c2[C@H](OC(C)(C)C)C(=O)O)NC(=O)C2(CCCCCC2)N3)cc1 [Compound 140]	3.1
Cc1ccc(-c2c(C)c3c(c(C)c2[C@H](OC(C)(C)C)C(=O)O)NS(=O)(=O)Cc2cccc(F)c2-3)cc1 [Compound 156]	23
Cc1ccc(-c2c(C)c3c(c(C)c2[C@H](OC(C)(C)C)C(=O)O)N(S(C)(=O)=O)Cc2cc(OC(F)(F)F)ccc2-3)cc1 [Compound 164]	4.1
Cc1ccc(-c2c(C)c3c(c(C)c2[C@H](OC(C)(C)C)C(=O)O)N(S(C)(=O)=O)Cc2ccc(F)cc2-3)cc1 [Compound 161]	21
Cc1ccc(-c2c(C)c3c(c(C)c2[C@H](OC(C)(C)C)C(=O)O)N(S(C)(=O)=O)Cc2c(F)ccc(F)c2-3)cc1 [Compound 142]	4.4

Same assay, conditions: Human immunodeficiency virus 1, MT4, 96 h, Table A-4, four days

SMILES	EC50 [nM]
Cc1c(-c2c(C)c3c(c(C)c2[C@H](OC(C)(C)C)C(=O)O)N(S(C)(=O)=O)Cc2cccc(F)c2-3)ccc2c1NCCO2 [Compound 235]	5.4
COc1cc2c(cn1)-c1c(C)c(-c3ccc(C)cc3)c([C@H](OC(C)(C)C)C(=O)O)c(C)c1N(S(C)(=O)=O)C2 [Compound 214]	4.9
Cc1c(-c2c(C)c3c(c(C)c2[C@H](OC(C)(C)C)C(=O)O)N(S(C)(=O)=O)Cc2c(F)ccc(F)c2-3)ccc2c1CCCO2 [Compound 246]	2.3
Cc1ccc(-c2c(C)c3c(c(C)c2[C@H](OC(C)(C)C)C(=O)O)N(S(C)(=O)=O)Cc2c(C)cccc2-3)cc1 [Compound 208]	15

Same assay, conditions: Human immunodeficiency virus 1, MT4, 96 h, Table A-5, four days

SMILES	EC50 [nM]
Cc1c(-c2c(C)c3c(c(C)c2[C@H](OC(C)(C)C)C(=O)O)N(S(C)(=O)=O)Cc2cc(F)cc(F)c2-3)ccc2c1NCCO2 [Compound 286]	3.2
Cc1c(-c2ccc3c(c2)C(F)(F)CCO3)c([C@H](OC(C)(C)C)C(=O)O)c(C)c2c1-c1c(F)cccc1CN2S(C)(=O)=O [Compound 259]	27

Same assay, conditions: Human immunodeficiency virus 1, MT4, 96 h, Table A-7, four days

SMILES	EC50 [nM]
COc1ccc(-c2c(C)c3c(c(C)c2[C@H](OC(C)(C)C)C(=O)O)N(S(C)(=O)=O)Cc2c(F)ccc(F)c2-3)c(C)n1 [Compound 329]	39
Cc1cc(C)c(-c2c(C)c3c(c(C)c2[C@H](OC(C)(C)C)C(=O)O)N(S(C)(=O)=O)Cc2cccc(F)c2-3)s1 [Compound 343]	16
Cc1c(-c2c(C)c3c(c(C)c2[C@H](OC(C)(C)C)C(=O)O)N(S(C)(=O)=O)Cc2cccc(F)c2-3)ccc2c1OCCO2 [Compound 360]	4.4
Cc1c(-c2c(C)c3c(c(C)c2[C@H](OC(C)(C)C)C(=O)O)N(C)Cc2cc(F)cc(F)c2-3)ccc2c1NCCO2 [Compound 344]	47

Same assay, conditions: Human immunodeficiency virus 1, MT4, 96 h, Table A-8 (continuation of Tables A-1 to A-9), four days

SMILES	EC50 [nM]
COc1nc2c(cc1F)CN(S(C)(=O)=O)c1c(C)c([C@H](OC(C)(C)C)C(=O)O)c(-c3ccc(C)cc3)c(C)c1-2 [Compound 389]	67
Cc1ccc(-c2c(C)c3c(c(C)c2[C@H](OC(C)(C)C)C(=O)O)N(S(C)(=O)=O)Cc2nc(C)cc(C)c2-3)cc1 [Compound 388]	29
Cc1ccc(-c2c(C)c3c(c(C)c2[C@H](OC(C)(C)C)C(=O)O)N(S(C)(=O)=O)Cc2ccc(N)nc2-3)cc1 [Compound 386]	86
Cc1ccc(-c2c(C)c3c(c(C)c2[C@H](OC(C)(C)C)C(=O)O)N(S(C)(=O)=O)Cc2ccc4c(c2-3)OCCO4)cc1 [Compound 395]	34
Cc1c(-c2ccc(Cl)cc2)c([C@H](OC2(C)CCC2)C(=O)O)c(C)c2c1-c1c(F)cccc1CN2S(C)(=O)=O [Compound 378]	36

Same assay, conditions: Human immunodeficiency virus 1, MT4, 96 h, Table A-9, four days

SMILES	EC50 [nM]
Cc1ccc(-c2c(C)c3c(c(C)c2[C@H](OC(C)(C)C)C(=O)O)N(S(C)(=O)=O)Cc2cc(Cl)cnc2-3)cc1 [Compound 407]	< 7.8
Cc1cnc2c(c1)CN(S(C)(=O)=O)c1c(C)c([C@H](OC(C)(C)C)C(=O)O)c(-c3ccc(Cl)cc3O)c(C)c1-2 [Compound 406]	38

Same assay, conditions: Table A-2, four days

SMILES	EC50 [nM]
Cc1ccc(-c2c(C)c3c(c(C)c2[C@H](OC(C)(C)C)C(=O)O)N(S(C)(=O)=O)Cc2cc4c(cc2-3)OCCO4)cc1 [Compound 104]	2.1
Cc1ccc(-c2c(C)c3c(c(C)c2[C@H](OC(C)(C)C)C(=O)O)NS(=O)(=O)Cc2cc(C)ccc2-3)cc1 [Compound 118]	4.4
